From patent publication US20240083857A1, “2-Methyl-Quinazolines” (Bayer Pharma Aktiengesellschaft, priority 2017, published 2024)

Experiments:
[1] = biological target: human SOS1 (loading of human K-Ras^G12C-GDP with fluorescent GTP-analog) (Homo sapiens, UniProt Q07889); experiment: Biochemical assay 3: K-Ras^G12C activation assay by hSOS1 (HTRF); conditions: no GTP; read-out: Assay 3 (KRAS-Activation by SOS no GTP) activity expressed as IC50
Excerpt: Biochemical assay 3: K-Ras^G12C Activation Assay by hSOS1
K-Ras is a small GTPase that can bind GDP and GTP. The guanine nucleotide exchange factor SOS catalyzes the activation of K-Ras by promoting the exchange of GDP to GTP. SOS binds to K-Ras-GDP thereby opening the GDP-binding pocket to facilitate GDP release. Rebinding of excess nucleotide leads to dissociation of the K-Ras-SOS intermediate complex leaving K-Ras loaded with the nucleotide.
This assay quantifies human SOS1-mediated loading of human K-Ras^G12C-GDP with a fluorescent GTP-analog. Detection of successful loading is achieved by measuring homogenous time-resolved fluorescence resonance energy transfer (HTRF) from antiGST-Terbium (FRET donor) bound to GST-K-RasG12C to the loaded fluorescent GTP analog (FRET-acceptor).
The fluorescent GTP-analog EDA-GTP-Dy647P1 (2′/3′-O-(2-Aminoethyl-carbamoyl)-guanosine-5′-triphosphate labelled with Dy647P1 (Dyomics GmbH, Germany)) was synthesized by Jena Biosciences GmbH (Germany) and supplied as a 1 mM aqueous solution.
The assay buffer contained 10 mM HEPES pH 7.4 (Applichem), 150 mM NaCl (Sigma), 5 mM MgCl2 (Sigma), 1 mM DTT (Thermofisher), 0.05% BSA Fraction V, pH 7.0, (ICN Biomedicals), 0.0025% (v/v) Igepal (Sigma).
Concentrations of protein batches used were optimized to be within the linear range of the HTRF signal. A Ras working solution was prepared in assay buffer containing typically 100 nM GST-hK-RasG12C and 2 nM antiGST-Tb (Cisbio, France). A hSOS1 working solution was prepared in assay buffer containing typically 20 nM hSOS1 and 200 nM EDA-GTP-Dy647P1. An inhibitor control solution was prepared in assay buffer containing 200 nM EDA-GTP-Dy647P1 without hSOS1.
(§1) Fifty nl of a 100-fold concentrated solution of the test compound in DMSO were transferred into a black microtiter test plate (384 or 1536, Greiner Bio-One, Germany). For this, either a Hummingbird liquid handler (Digilab, MA, USA) or an Echo acoustic system (Labcyte, CA, USA) was used.
(§2) All steps of the assay were performed at 20° C. A volume of 2.5 μl of the Ras working solution was added to all wells of the test plate using a Multidrop dispenser (Thermo Labsystems). After 10 min preincubation, 2.5 μl of the hSOS1 working solution were added to all wells except for those wells at the side of the test plate that were subsequently filled with 2.5 μl of the inhibitor control solution. After 30 min incubation the fluorescence was measured with a Pherastar (BMG, Germany) using the HTRF module (excitation 337 nm, emission 1: 620 nm, emission 2: 665 nm).
(§3) IC50 values were calculated by 4-Parameter fitting using a commercial software package (Genedata Screener, Switzerland).

[2] = biological target: K-Ras^G12C : hSOS1 interaction (Homo sapiens, UniProt Q07889); experiment: Biochemical assay 1: K-Ras^G12C interaction assay with hSOS1 (HTRF); assay type: binding; conditions: read-out: Assay 1 (KRAS-SOS Interaction) activity expressed as IC50
Protocol: Biochemical assay 1: K-Ras^G12C Interaction Assay with hSOS1
This assay quantifies the equilibrium interaction of human SOS1 with K-Ras^Gl2C. Detection of the interaction is achieved by measuring homogenous time-resolved fluorescence resonance energy transfer (HTRF) from antiGST-Europium (FRET donor) bound to GST-K-Ras^G12C to anti-6His-XL665 bound to His-tagged hSOS1 (FRET-acceptor).
The assay buffer contained 5 mM HEPES pH 7.4 (Applichem), 150 mM NaCl (Sigma), 10 mM EDTA (Promega), 1 mM DTT (Thermofisher), 0.05% BSA Fraction V, pH 7.0, (ICN Biomedicals), 0.0025% (v/v) Igepal (Sigma) and 100 mM KF (FLUKA).
Concentrations of protein batches used were optimized to be within the linear range of the HTRF signal. A Ras working solution was prepared in assay buffer containing typically 10 nM GST-hK-RasG12C and 2 nM antiGST-Eu(K) (Cisbio, France). A SOS working solution was prepared in assay buffer containing typically 20 nM His-hSOS1 and 10 nM anti-6His-XL665 (Cisbio, France). An inhibitor control solution was prepared in assay buffer containing 10 nM anti-6His-XL665 without hSOS1.
as §1
as §2, with “2” for “10”, “SOS” for “hSOS1”, “60” for “30”
as §3

| Compound | IC50 [1] [µM] | IC50 [2] [µM] |
| --- | --- | --- |
| COc1cc2nc(C)nc(N[C@@H](C)c3ccc(-c4cccc(OC(F)(F)F)c4)s3)c2cc1OC (racemic) [Example 151, 6,7-dimethoxy-2-methyl-N-[1-{5-[3-(trifluoromethoxy)phenyl]thiophen-2-yl}ethyl]quinazolin-4-amine] | 13.3 | 10.4 |
| COc1cc2nc(C)nc(N[C@@H](C)c3ccc(-c4ccc5c(c4)OCCO5)s3)c2cc1OC (racemic) [Example 98, N-{1-[5-(2,3-dihydro-1,4-benzodioxin-6-yl)thiophen-2-yl]ethyl}-6,7-dimethoxy-2-methylquinazolin-4-amine] | – | 16.1 |
| COc1cc2nc(C)nc(N[C@@H](C)c3ccc(-c4cccc(C(F)(F)F)c4)s3)c2cc1OC (racemic) [Example 168, 6,7-dimethoxy-2-methyl-N-[1-{5-[3-(trifluoromethyl)phenyl]thiophen-2-yl}ethyl]quinazolin-4-amine] | – | 12.2 |
| COc1cc2nc(C)nc(N[C@@H](C)c3ccc(-c4ccc5c(ccn5C)c4)s3)c2cc1OC (racemic) [Example 49, 6,7-dimethoxy-2-methyl-N-{1-[5-{1-methyl-1H-indol-5-yl)thiophen-2-yl]ethyl}quinazolin-4-amine] | – | 19.6 |
| CCCNC(=O)c1ccc(-c2ccc([C@H](C)Nc3nc(C)nc4cc(OC)c(OC)cc34)s2)cc1 (racemic) [Example 141, 4-(5-{1-[(6,7-dimethoxy-2-methylquinazolin-4-yl)amino]ethyl}thiophen-2-yl)-N-propylbenzamide] | 11.1 | 5.63 |
| COc1cc2nc(C)nc(N[C@@H](C)c3ccc(-c4ccc5c(c4)OCO5)s3)c2cc1OC (racemic) [Example 163, N-{1-[5-(1,3-benzodioxol-5-yl)thiophen-2-yl]ethyl}-6,7-dimethoxy-2-methylquinazolin-4-amine] | – | 13.6 |
| COc1cccc(-c2ccc([C@H](C)Nc3nc(C)nc4cc(OC)c(OC)cc34)s2)c1 (racemic) [Example 167, 6,7-dimethoxy-N-{1-[5-(3-methoxyphenyl)thiophen-2-yl]ethyl}-2-methylquinazolin-4-amine] | – | 16.9 |
